From the NIST ThermoML archive (doi:10.1021/acs.jced.7b00106)
± gives the expanded uncertainty stated by the source.

Details: Hot wire method

Structure (SMILES): FC(F)(F)/C=C/Cl [(E)-1-chloro-3,3,3-trifluoroprop-1-ene]
- thermal conductivity (322.01 K, 259 kPa, Gas): 0.01279 ± 0.00045 W/m/K
- thermal conductivity (322.01 K, 462 kPa, Liquid): 0.07568 ± 0.0028 W/m/K
- thermal conductivity (322.04 K, 43829 kPa, Liquid): 0.09557 ± 0.0032 W/m/K
- thermal conductivity (322.05 K, 99 kPa, Gas): 0.01242 ± 0.00044 W/m/K
- thermal conductivity (322.05 K, 194 kPa, Gas): 0.01256 ± 0.00045 W/m/K
- thermal conductivity (322.06 K, 34292 kPa, Liquid): 0.09256 ± 0.0041 W/m/K
- thermal conductivity (322.06 K, 43826 kPa, Liquid): 0.09519 ± 0.0031 W/m/K
- thermal conductivity (322.07 K, 189 kPa, Gas): 0.01239 ± 0.00044 W/m/K
- thermal conductivity (322.08 K, 34300 kPa, Liquid): 0.09194 ± 0.0046 W/m/K
- thermal conductivity (322.09 K, 98 kPa, Gas): 0.01259 ± 0.00045 W/m/K
- thermal conductivity (322.09 K, 25078 kPa, Liquid): 0.08798 ± 0.0028 W/m/K
- thermal conductivity (322.22 K, 122 kPa, Gas): 0.0128 ± 0.00045 W/m/K
- thermal conductivity (322.23 K, 142 kPa, Gas): 0.01241 ± 0.00044 W/m/K
- thermal conductivity (322.25 K, 164 kPa, Gas): 0.01289 ± 0.00046 W/m/K
- thermal conductivity (322.27 K, 260 kPa, Gas): 0.0128 ± 0.00045 W/m/K
- thermal conductivity (322.29 K, 144 kPa, Gas): 0.01276 ± 0.00045 W/m/K
- thermal conductivity (322.3 K, 16963 kPa, Liquid): 0.08446 ± 0.0034 W/m/K
- thermal conductivity (322.32 K, 188 kPa, Gas): 0.01244 ± 0.00044 W/m/K
- thermal conductivity (322.33 K, 99 kPa, Gas): 0.01222 ± 0.00044 W/m/K
- thermal conductivity (322.34 K, 258 kPa, Gas): 0.0126 ± 0.00045 W/m/K
- thermal conductivity (322.36 K, 9801 kPa, Liquid): 0.08109 ± 0.0026 W/m/K
- thermal conductivity (322.36 K, 66579 kPa, Liquid): 0.1031 ± 0.0094 W/m/K
- thermal conductivity (322.38 K, 66598 kPa, Liquid): 0.1031 ± 0.0057 W/m/K
- thermal conductivity (322.39 K, 193 kPa, Gas): 0.01261 ± 0.00045 W/m/K
- thermal conductivity (322.4 K, 5186 kPa, Liquid): 0.07821 ± 0.0024 W/m/K
- thermal conductivity (322.4 K, 56115 kPa, Liquid): 0.09929 ± 0.0053 W/m/K
- thermal conductivity (322.44 K, 98 kPa, Gas): 0.01281 ± 0.00045 W/m/K
- thermal conductivity (322.44 K, 16945 kPa, Liquid): 0.08465 ± 0.0034 W/m/K
- thermal conductivity (322.46 K, 43829 kPa, Liquid): 0.09512 ± 0.0042 W/m/K
- thermal conductivity (322.47 K, 43824 kPa, Liquid): 0.09516 ± 0.0031 W/m/K
- thermal conductivity (322.49 K, 450 kPa, Liquid): 0.07575 ± 0.0023 W/m/K
- thermal conductivity (322.49 K, 9815 kPa, Liquid): 0.081 ± 0.0025 W/m/K
- thermal conductivity (322.49 K, 34282 kPa, Liquid): 0.09204 ± 0.005 W/m/K
- thermal conductivity (322.5 K, 66578 kPa, Liquid): 0.1033 ± 0.0094 W/m/K
- thermal conductivity (322.51 K, 34308 kPa, Liquid): 0.0922 ± 0.0037 W/m/K
- thermal conductivity (322.51 K, 66603 kPa, Liquid): 0.1032 ± 0.0037 W/m/K
- thermal conductivity (322.52 K, 141 kPa, Gas): 0.01234 ± 0.00044 W/m/K
- thermal conductivity (322.54 K, 260 kPa, Gas): 0.01283 ± 0.00046 W/m/K
- thermal conductivity (322.54 K, 5172 kPa, Liquid): 0.07803 ± 0.0028 W/m/K
- thermal conductivity (322.54 K, 25075 kPa, Liquid): 0.08816 ± 0.0028 W/m/K
- thermal conductivity (322.55 K, 123 kPa, Gas): 0.01279 ± 0.00045 W/m/K
- thermal conductivity (322.56 K, 164 kPa, Gas): 0.0126 ± 0.00045 W/m/K
- thermal conductivity (322.61 K, 99 kPa, Gas): 0.01223 ± 0.00044 W/m/K
- thermal conductivity (322.63 K, 187 kPa, Gas): 0.01233 ± 0.00044 W/m/K
- thermal conductivity (322.63 K, 440 kPa, Liquid): 0.0752 ± 0.0023 W/m/K
- thermal conductivity (322.63 K, 43821 kPa, Liquid): 0.09452 ± 0.0034 W/m/K
- thermal conductivity (322.64 K, 143 kPa, Gas): 0.0128 ± 0.00045 W/m/K
- thermal conductivity (322.64 K, 34270 kPa, Liquid): 0.09178 ± 0.0057 W/m/K
- thermal conductivity (322.66 K, 34302 kPa, Liquid): 0.09186 ± 0.0028 W/m/K
- thermal conductivity (322.71 K, 25078 kPa, Liquid): 0.08769 ± 0.0027 W/m/K
- thermal conductivity (322.72 K, 259 kPa, Gas): 0.01251 ± 0.00044 W/m/K
- thermal conductivity (322.78 K, 192 kPa, Gas): 0.01262 ± 0.00045 W/m/K
- thermal conductivity (322.81 K, 141 kPa, Gas): 0.01231 ± 0.00044 W/m/K
- thermal conductivity (322.82 K, 99 kPa, Gas): 0.01285 ± 0.00046 W/m/K
- thermal conductivity (322.82 K, 260 kPa, Gas): 0.01282 ± 0.00046 W/m/K
- thermal conductivity (322.83 K, 123 kPa, Gas): 0.01245 ± 0.00044 W/m/K
- thermal conductivity (322.89 K, 123 kPa, Gas): 0.01281 ± 0.00045 W/m/K
- thermal conductivity (322.89 K, 164 kPa, Gas): 0.01245 ± 0.00044 W/m/K
- thermal conductivity (322.9 K, 164 kPa, Gas): 0.01257 ± 0.00045 W/m/K
- thermal conductivity (322.9 K, 16956 kPa, Liquid): 0.08425 ± 0.0032 W/m/K
- thermal conductivity (322.91 K, 99 kPa, Gas): 0.0122 ± 0.00043 W/m/K
- thermal conductivity (322.91 K, 66592 kPa, Liquid): 0.1026 ± 0.0033 W/m/K
- thermal conductivity (322.92 K, 186 kPa, Gas): 0.0124 ± 0.00044 W/m/K
- thermal conductivity (322.92 K, 66618 kPa, Liquid): 0.1032 ± 0.0033 W/m/K
- thermal conductivity (322.96 K, 56154 kPa, Liquid): 0.09964 ± 0.0047 W/m/K
- thermal conductivity (322.97 K, 9802 kPa, Liquid): 0.08079 ± 0.0036 W/m/K
- thermal conductivity (323.03 K, 143 kPa, Gas): 0.01271 ± 0.00045 W/m/K
- thermal conductivity (323.05 K, 5181 kPa, Liquid): 0.07837 ± 0.0024 W/m/K
- thermal conductivity (323.06 K, 43815 kPa, Liquid): 0.09535 ± 0.0054 W/m/K
- thermal conductivity (323.07 K, 16973 kPa, Liquid): 0.08427 ± 0.0027 W/m/K
- thermal conductivity (323.07 K, 43817 kPa, Liquid): 0.09505 ± 0.0053 W/m/K
- thermal conductivity (323.08 K, 66614 kPa, Liquid): 0.1032 ± 0.0033 W/m/K
- thermal conductivity (323.1 K, 259 kPa, Gas): 0.01262 ± 0.00045 W/m/K
